SMILES strings stand for the structures. A value given as a limit tells only on which side of the number the result lay.

This assay relates to 349418-098-R-PDC complex spheroid viability. Briefly: Anticancer human tumor 349418-098-R-PDC patient-derived lung adenocarcinoma cell line growth inhibition [RAS]. The following applies: for viability, T/C: stronger effect = lower value. An excerpt: RAS pathway inhibitors in Combinations in Complex Spheroids
A high-throughput screen of multi-cell type tumor spheroids was designed to identify active combinations of RAS pathway inhibitors and targeted small molecules. Complex spheroids include a stromal component modeled by human endothelial cells (HUVEC) and fibroblasts modeled by human mesenchymal stem cells (MSCs). The concentration ranges selected for each drug and investigational agent were based upon clinically achievable concentrations if the clinical Cmax of the agent was known.
Compounds. The drugs and investigational agents: abemaciclib (NSC768073), cobimetinib (NSC768068), divarasib (GDC6063, NSC841802), docetaxel (NSC628503), GDC-1971 (RLY-1971, NSC841576), gemcitabine (NSC613327), inavolisib (NSC800729), ipatasertib (NSC767898), KB-0742 (NSC834161), MRTX-1133 (NSC836407), osimertinib (NSC779217), RMC-4630 (NSC839698), RMC-6236 (NSC851965), RMC-6291 (NSC852671), Ro-3306 (NSC812927), sapanisertib (NSC764658), SN-38 (NSC673596), staurosporine (NSC755774), SY5609 (NSC837396), and tovorafenib (DAY101, NSC766906), were obtained from the National Cancer Institute (NCI) Developmental Therapeutics Program Chemical Repository. The FDA-approved anticancer drug set is available from the NCI Developmental Therapeutics Program. […] The stock solutions were prepared in dimethyl sulfoxide (DMSO, Sigma-Aldrich, St. Louis, MO, cat. D2650) at 800-fold the tested concentration and stored at -70 degrees C prior to their use. All drugs and investigational agents were tested over a range starting from a high concentration at or near the clinical Cmax and decreasing in half-log increments. If the clinical Cmax for an agent had not been determined, the highest concentration tested was 10 microM.
Cell Culture. All cells were maintained in an incubator at 37 degrees C and 5% CO2 with 95% humidity. The PDC lines were cultured according to standard operating procedures established by the NCI PDMR. All PDCs were thawed and cultured in Matrigel-coated flasks prepared with a working solution of 1X Ham's F-12 nutrient mix, without supplementation (Invitrogen, Waltham, MA, cat. 11765054), 100 U/mL penicillin-streptomycin (Invitrogen, cat. 15140122), and 2.5% Matrigel (Corning Inc., Corning, NY, cat. 354248) for the first three passages. The 362531-283-R-J2-PDC and 782815-120-R-J1-PDC lines were cultured in 6C/Colon 1B media, which includes advanced DMEM/F-12 (Thermo Fisher Scientific, cat. 12634028), 10 mM HEPES (Thermo Fisher Scientific, cat. 15630080), 1X GlutaMAX supplement (Thermo Fisher Scientific, cat. 35050061), 0.1 mg/mL primocin (InvivoGen, San Diego, CA, cat. ant-pm-2), 10% defined fetal bovine serum, heat inactivated (HyClone Laboratories Inc., Logan, UT, cat. SH30070.03HI), 50% L-WRN conditioned media (ATCC, cat. CRL-3276), 1.25 mM N-Acetyl-L-cysteine (Sigma-Aldrich, cat. A9165), 10 mM nicotinamide (Sigma-Aldrich, cat. N0636), 1X B-27 supplement (Thermo Fisher Scientific, cat. 17504044), 1X N-2 supplement (Thermo Fisher Scientific, cat. 17502048), 50 ng/mL human EGF (Thermo Fisher Scientific, cat. PHG0311), and 10 microM Y-27632 dihydrochloride (Tocris Bioscience, cat. 1254). The K12877-001-R-J1-PDC line was cultured in 6I media, which includes all 6C/Colon 1B media plus 10 ng/mL human FGF-10 (PeproTech, cat. 100-26), 1 ng/mL human FGF-2 (PeproTech, cat. 100-18B), 1 µM prostaglandin E2 (Tocris Bioscience, cat. 2296), […] hydrocortisone (Sigma-Aldrich, cat. H4001), and […] bovine insulin (Sigma-Aldrich, cat. I6634). The K86415-001-R-J1-PDC line was cultured in 6D media, which includes all 6C/Colon 1B media components minus the L-WRN conditioned media. The 485176-168-R4-J1-PDC was cultured in PANC media, which includes all 6C/Colon 1B media plus 100 ng/mL human FGF-10 (PeproTech, cat. 100-26), 500 nM SB-431542 (Selleckchem, cat. S1067), and 10 nM gastrin (Tocris Bioscience, cat. 3006). […]

The mark [1] stands for this setting: curve of first compound, second compound 0.0316 µM.
[2] abbreviates: curve of first compound, second compound 0.1 µM.
The mark [3] stands for this setting: curve of first compound, second compound 0.316 µM.
Where [4] appears, read: curve of first compound, second compound 1 µM.
Setting [5] is: curve of first compound, second compound 3.16 µM.
Where [6] appears, read: curve of first compound, second compound 10 µM.
Where [7] appears, read: second compound 0.0316 µM, first compound 0.00316 µM.
Setting [8] is: second compound 0.0316 µM, first compound 0.01 µM.
[9] abbreviates: second compound 0.0316 µM, first compound 0.0316 µM.
Where [10] appears, read: second compound 0.0316 µM, first compound 0.1 µM.
Setting [11] is: second compound 0.0316 µM, first compound 0.316 µM.
Setting [12] is: second compound 0.0316 µM, first compound 1 µM.
[13] abbreviates: second compound 0.1 µM, first compound 0.00316 µM.
[14] abbreviates: second compound 0.1 µM, first compound 0.01 µM.
Where [15] appears, read: second compound 0.1 µM, first compound 0.0316 µM.
[16] abbreviates: second compound 0.1 µM, first compound 0.1 µM.
[17] abbreviates: second compound 0.1 µM, first compound 0.316 µM.
Where [18] appears, read: second compound 0.1 µM, first compound 1 µM.
Setting [19] is: second compound 0.316 µM, first compound 0.00316 µM.
The mark [20] stands for this setting: second compound 0.316 µM, first compound 0.01 µM.
Setting [21] is: second compound 0.316 µM, first compound 0.0316 µM.
Where [22] appears, read: second compound 0.316 µM, first compound 0.1 µM.
Where [23] appears, read: second compound 0.316 µM, first compound 0.316 µM.
Setting [24] is: second compound 0.316 µM, first compound 1 µM.
Where [25] appears, read: second compound 1 µM, first compound 0.00316 µM.
Setting [26] is: second compound 1 µM, first compound 0.01 µM.
Setting [27] is: second compound 1 µM, first compound 0.0316 µM.
Where [28] appears, read: second compound 1 µM, first compound 0.1 µM.
[29] abbreviates: second compound 1 µM, first compound 0.316 µM.
Setting [30] is: second compound 1 µM, first compound 1 µM.
[31] abbreviates: second compound 3.16 µM, first compound 0.00316 µM.
Setting [32] is: second compound 3.16 µM, first compound 0.01 µM.
[33] abbreviates: second compound 3.16 µM, first compound 0.0316 µM.
Where [34] appears, read: second compound 3.16 µM, first compound 0.1 µM.
The mark [35] stands for this setting: second compound 3.16 µM, first compound 0.316 µM.
[36] abbreviates: second compound 3.16 µM, first compound 1 µM.
Where [37] appears, read: second compound 10 µM, first compound 0.00316 µM.
[38] abbreviates: second compound 10 µM, first compound 0.01 µM.
Setting [39] is: second compound 10 µM, first compound 0.0316 µM.
Where [40] appears, read: second compound 10 µM, first compound 0.1 µM.
The mark [41] stands for this setting: second compound 10 µM, first compound 0.316 µM.
The mark [42] stands for this setting: second compound 10 µM, first compound 1 µM.
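Note: spheroids exposed to compound for seven days before viability readout.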

Turning to `C=CC(=O)N1CCN(c2nc(OCC3CCCN3C)nc3c(F)c(-c4nc(N)cc(C)c4C(F)(F)F)c(Cl)cc23)C(C)C1` (stereo not given), the viability, T/C (as a rule, the result in the treated group divided by that in the control group, in per cent) reads like this: (compound 0.1 µM) 102% [middle of 12 runs]; (compound 0.316 µM) 95.8% [middle of 12 runs]; (compound 1 µM) 85.1% [middle of 12 runs]. For the same molecule, the concentration for half-maximal inhibition (IC50) (usually the midpoint of a concentration-inhibition curve) was over 1000 nM (compound alone, run of 06/10/2024) and over 1000 nM (curve of compound).
As to `CC(C)NCC(C(=O)N1CCN(c2ncnc3c2C(C)CC3O)CC1)c1ccc(Cl)cc1` (stereo not given), the viability, T/C reads like this: (compound 0.1 µM) 81.7% [middle of 4 runs]; (compound 0.316 µM) 62.2% [middle of 4 runs]; (compound 1 µM) 37.9% [middle of 4 runs]; (compound 3.16 µM) 18% [middle of 4 runs]; (compound 10 µM) 12.6% [middle of 4 runs]. For the same molecule, the IC50 (curve of compound) is 476 nM [middle of 4 runs].
Take `C[C@@H](NC(=O)c1ncnc(N)c1Cl)c1ncc(C(=O)Nc2cc(C(F)(F)F)c(Cl)cn2)s1`: the viability, T/C (compound 0.1 µM) is 109% [middle of 4 runs]; the viability, T/C (compound 0.316 µM) was 91.3% [middle of 4 runs]; the viability, T/C (compound 1 µM) was 64.9% [middle of 4 runs]; the viability, T/C (compound 10 µM) was 32% [middle of 4 runs]. Moreover, the IC50 (curve of compound) is 2.13 µM [middle of 4 runs].
For the molecule `C=CC(=O)Nc1cc(Nc2nccc(-c3cn(C)c4ccccc34)n2)c(OC)cc1N(C)CCN(C)C` + C#Cc1c(F)ccc2cc(O)cc(-c3ncc4c(N5CC6CCC(C5)N6)nc(OCC56CCCN5CC(F)C6)nc4c3F)c12, the IC50 was over 1000 nM under setting [1]; over 1000 nM under setting [2]; over 1000 nM under setting [3]; over 1000 nM under setting [4]; over 1000 nM under setting [5]; 465 nM under setting [6]. Further, the viability, T/C is 97.1% under setting [7]; 130% under setting [8]; 95.5% under setting [9]; 86.1% under setting [10]; 84.3% under setting [11]; 92.3% under setting [12]. Besides, the viability, T/C by setting is: under setting [13], 93.5%; under setting [14], 125%; under setting [15], 82.3%; under setting [16], 68.3%; under setting [17], 80.2%; under setting [18], 66.5%. Besides, the viability, T/C is, setting by setting: under setting [19], 86.7%; under setting [20], 119%; under setting [21], 85.8%; under setting [22], 86.2%; under setting [23], 89.5%; under setting [24], 95.7%. Besides, the viability, T/C runs as follows: under setting [25], 80.2%; under setting [26], 121%; under setting [27], 85.3%; under setting [28], 73.1%; under setting [29], 89.2%; under setting [30], 82.5%. Also, the viability, T/C reads like this: under setting [31], 73.6%; under setting [32], 91.2%; under setting [33], 84.9%; under setting [34], 82.8%; under setting [35], 67.6%; under setting [36], 86.4%. For the same molecule, the viability, T/C was 55.6% under setting [37]; 62% under setting [38]; 88.9% under setting [39]; 65.2% under setting [40]; 72.9% under setting [41]; 12.4% under setting [42].
Take `O=C(c1ccc(F)c(F)c1Nc1ccc(I)cc1F)N1CC(O)([C@@H]2CCCCN2)C1` + C#Cc1c(F)ccc2cc(O)cc(-c3ncc4c(N5CC6CCC(C5)N6)nc(OCC56CCCN5CC(F)C6)nc4c3F)c12: the 50% inhibitory concentration (IC50) is under 3.16 nM under setting [1]; under 3.16 nM under setting [2]; under 3.16 nM under setting [3]; under 3.16 nM under setting [4]; under 3.16 nM under setting [5]; under 3.16 nM under setting [6]. Moreover, the viability, T/C is 47.9% under setting [7]; 37.5% under setting [8]; 36.9% under setting [9]; 15.6% under setting [10]; 7.05% under setting [11]; 5.82% under setting [12]. Besides, the viability, T/C under setting [13] is 44.8%; the viability, T/C under setting [14] was 39.8%; the viability, T/C under setting [15] was 29.3%; the viability, T/C under setting [16] is 14.2%; the viability, T/C under setting [17] was 7.41%; the viability, T/C under setting [18] was 4.83%. In addition, the viability, T/C under setting [19] was 46%; the viability, T/C under setting [20] is 32.6%; the viability, T/C under setting [21] was 24.1%; the viability, T/C under setting [22] is 13.3%; the viability, T/C under setting [23] was 5.32%; the viability, T/C under setting [24] is 5.62%. For the same molecule, the viability, T/C was 38.6% under setting [25]; 31.1% under setting [26]; 21.9% under setting [27]; 10.9% under setting [28]; 5.57% under setting [29]; 4.89% under setting [30]. The viability, T/C is, setting by setting: under setting [31], 36.8%; under setting [32], 22.8%; under setting [33], 16%; under setting [34], 8.92%; under setting [35], 6.05%; under setting [36], 4.36%. Further, the viability, T/C was 16.8% under setting [37]; 7.65% under setting [38]; 3.23% under setting [39]; 4.71% under setting [40]; 2.14% under setting [41]; 0.87% under setting [42].

These data come from PubChem BioAssay AID2060904 (Molecular Pharmacology Branch, DTP, NCI, 2025).
